Like-named read-outs stand apart in the source and are kept apart here.

Common to all, as to assay type: in vivo
Data set [1] deals with larvae of the diamondback moth (Plutella xylostella). Kind of data set: Plutella xylostella - spray test. To be noted: cabbage leaves. From the text:
(§1) The expected activity for a given combination of two active compounds can be calculated according to S. R. Colby, Weeds 15 (1967), 20-22 as follows: • If • X is the efficacy expressed in % mortality of the untreated control for test compound A at a concentration of m ppm respectively m g/ha, • Y is the efficacy expressed in % mortality of the untreated control for test compound B at a concentration of n ppm respectively n g/ha, • E is the efficacy expressed in % mortality of the untreated control using the mixture of A and B at m and n ppm respectively m and n g/ha,
(§2) If the observed insecticidal efficacy of the combination is higher than the one calculated as “E”, then the combination of the two compounds is more than additive, i.e., there is a synergistic effect.
To produce a suitable preparation of active compound, 1 part by weight of active compound is mixed with the stated amount of solvent and emulsifier, and the concentrate is diluted with emulsifier-containing water to the desired concentration Ammonium salt and/or penetration enhancer in a dosage of 1000 ppm are added to the desired concentration if necessary. […]
After the specified period of time, the mortality in % is determined. […] The mortality values determined thus are recalculated using the Colby-formula (see sheet 1).

Data set [2] concerns green peach aphid (Myzus persicae). Kind of data set: Myzus persicae - spray test.
Description: as §1, §2
To produce a suitable preparation of active compound, 1 part by weight of active compound is mixed with the stated amount of solvent and emulsifier, and the concentrate is diluted with emulsifier-containing water to the desired concentration.
Chinese cabbage (Brassica pekinensis) leaf-disks infected with all instars of the green peach aphid (Myzus persicae) are sprayed with a preparation of the active ingredient of the desired concentration.
After the specified period of time, mortality in % is determined 100% means all aphids have been killed; 0% means none of the aphids have been killed. The mortality values determined thus are recalculated using the Colby-formula (see sheet 1).

The test system of data set [3] is mustard beetle larvae (Phaedon cochleariae). Kind of data set: Phaedon cochleariae - spray test. To be noted: foliar, 144 h, read-out: Efficacy in % after 6d (mortality).
Description: as §1, §2
To produce a suitable preparation of active compound, 1 part by weight of active compound is mixed with the stated amount of solvent and emulsifier, and the concentrate is diluted with emulsifier-containing water to the desired concentration. To produce a suitable preparation of a spore suspension the spores are diluted with emulsifier-containing water to the desired concentration.
Chinese cabbage (Brassica pekinensis) leaf-disks are sprayed with a preparation of the active ingredient of the desired concentration. Once dry, the leaf disks are infested with mustard beetle larvae (Phaedon cochleariae).
After the specified period of time, mortality in % is determined. 100% means all beetle larvae have been killed and 0% means none of the beetle larvae have been killed. The mortality values determined thus are recalculated using the Colby-formula (see sheet 1).

`O=C1C=C(N(Cc2ccc(Cl)nc2)CC(F)F)CO1` [Flupyradifurone]: the “Efficacy in % after 2d (mortality)” value in data set [1] (1.25 ppm, 2 d) amounted to 0%. Besides, the “Efficacy in % after 6d (mortality)” value in data set [2] (0.5 g ai/ha, Chinese cabbage leaf disks, 6 d) is given as 0%.
Take `O=C(NCCc1ncc(C(F)(F)F)cc1Cl)c1ccccc1C(F)(F)F` [Fluopyram, fluopyram]: in data set [3] (in Brassica rapa), the mortality at 100 g/ha turned out to be 0%. In data set [1] (Plutella xylostella, 72 h, 50 ppm, 3 d, read-out: Efficacy in % after 3d (mortality)), the mortality at 50 ppm was found to be 0%.
As for `Cc1cc(C(F)(C(F)(F)F)C(F)(F)F)ccc1NC(=O)c1cccc(Cl)c1C(=O)NC(C)(C)C#N` [(I-5)], the mortality at 2.5 g/ha in data set [3] (2.5 g ai/ha, Chinese cabbage leaf disks, 6 d) is 0%. Moreover, the mortality at 4 g/ha in data set [3] (4 g ai/ha, Chinese cabbage leaf disks, 6 d) is 0%. Also, the mortality at 12 g/ha in data set [3] (12 g ai/ha, Chinese cabbage leaf disks, 6 d) was determined as 0%. For the same compound, the mortality at 1.25 g/ha in data set [2] (Myzus persicae, foliar, 144 h, 1.25 g ai/ha, Chinese cabbage leaf disks, 6 d, read-out: Efficacy in % after 6d (mortality)) is 0%. Further, the mortality at 1.5 g/ha in data set [2] (Myzus persicae, foliar, 144 h, 1.5 g ai/ha, Chinese cabbage leaf disks, 6 d, read-out: Efficacy in % after 6d (mortality)) came out at 0%. Moreover, the mortality at 15 g/ha in data set [2] (Myzus persicae, foliar, 144 h, 15 g ai/ha, Chinese cabbage leaf disks, 6 d, read-out: Efficacy in % after 6d (mortality)) stood at 0%.
For the compound `CC(c1ccc(C(F)(F)F)nc1)S(C)(=O)=NC#N` (stereo not shown) [Sulfoxaflor (II-13), Sulfoxaflor], in data set [3] (in Brassica rapa), the mortality at 0.16 g/ha amounted to 0% and the mortality at 12 g/ha was found to be 0%. Besides, in data set [2] (Myzus persicae, in Brassica rapa, foliar, 144 h, read-out: Efficacy in % after 6d (mortality)), the mortality at 0.3 g/ha came out at 70%.

Broadly, the mortality is the percentage killed.

These data come from US9549551B2, “Active compound combinations having insecticidal properties” (priority 2013, dated 2017).
